Measurements as given in paper PMC8297402, “Trifluoromethyl-substituted 3,5-bis(arylidene)-4-piperidones as potential anti-hepatoma and anti-inflammation agents by inhibiting NF-кB activation” (Journal of Enzyme Inhibition and Medicinal Chemistry, 2021).
Like-named read-outs stand apart in the source and are kept apart here.

Legend:
[1] = test system: IL-6; experiment: ELISA of IL-6 release in LPS-stimulated RAW264.7 cells; assay type: cell-based, mouse; settings: Mus musculus, RAW264.7, BAPs (5 μM) + LPS (1 μg/mL), RAW264.7, ELISA; read-out: Inhibition rate IL-6
In short: (§1)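 RAW264.7 cells pretreated 2 h with compound at 5.0 μM (PDTC 30 μM as reference), then stimulated with LPS 1.0 μg/mL for a further 22 h. Secreted TNF-α and IL-6 in the culture media quantified by ELISA.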

[2] = test system: A549; experiment: Modified MTT cytotoxicity assay, A549
[3] = test system: TNF-α; experiment: ELISA of TNF-α release in LPS-stimulated RAW264.7 cells; assay type: cell-based, mouse; settings: Mus musculus
In short: as §1

[4] = test system: Bax; experiment: Western blot, Bax expression in HepG2 cells; assay type: cell-based, Human; settings: HepG2, 1.0, 2.0, 4.0 μM, 24 h
Text: (§2) Primary antibodies (anti-Bax, Abcam, ab32503; anti-Bcl-2, Abcam, ab194583; anti-Cleaved caspase-3, Abcam, ab2302; anti-p65, Cell Signalling Technology, 8242S; anti-p-p65, Cell Signalling Technology, 3033S; anti-IκBα, Cell Signalling Technoligy, 4812S; anti-p-IκBα, Cell Signalling Technology, 2859S; anti-p38, Cell Signalling Technology, 8690S; anti-p-p38, Cell Signalling Technology, 4511S; anti-JNK, Cell Signalling Technology, 9258 T; anti-p-JNK, Santa Cruz Biotechnology, sc-6254; anti-GAPDH, Abcam, ab181602), and goat anti-rabbit IgG/HRP secondary antibodies (Cell Signalling Technology, 98164 s) were purchased and used according to the manufacturer’s instructions. HepG2 cell lines were incubated with different doses of BAP 16 (1.0, 2.0, 4.0 μM) for 24 h (Bax, Cleaved caspase-3, Bcl-2). RAW264.7 cells were incubated with BAP 16 for 1 h, then treated with LPS (1.0 μg/mL) for 30 min. Afterward cell extraction was performed and extracts were used for Western blot analysis. Next, 30 μg protein of cell lysates were separated by 12% SDS-PAGE gel. The proteins were then transferred onto nitrocellulose membranes. […] By using Quantity One software (Bio-Rad), western blotting results were quantified from more than three separate experiments.

[5] = test system: p-p38; experiment: Western blot, LPS-induced phosphorylation of p38 in RAW264.7 cells; assay type: cell-based, mouse; settings: RAW264.7, 1.0, 2.0, 4.0 μM, LPS 1.0 μg/mL 30 min
Text: as §2

[6] = test system: p-IκBα; experiment: Western blot, LPS-stimulated phosphorylation of IκBα in RAW264.7 cells; assay type: cell-based, mouse; settings: RAW264.7, 1.0, 2.0, 4.0 μM, LPS 1.0 μg/mL 30 min
Text: as §2

[7] = test system: p-JNK; experiment: Western blot, LPS-induced phosphorylation of JNK in RAW264.7 cells; assay type: cell-based, mouse; settings: RAW264.7, 1.0, 2.0, 4.0 μM, LPS 1.0 μg/mL 30 min
Text: as §2

[8] = test system: A2780; experiment: Modified MTT cytotoxicity assay, A2780
Protocol: To further verify the anti-tumour activity, one human non-small cell lung cancer cell line (A549), one human ovarian cancer cell line (A2780), and one human normal heptical cell line (HHL-5) were screened by BAPs (4–30) using a modified MTT assay (Supporting Information). DOX and curcumin were selected as positive controls.
The optical density (OD) value of each well was measured on a
multi-well plate reader (TECAN, Mӓnnedorf, Switzerland ) at 570 nm.
Every IC 50 value was the average of three replicates.
Doxorubicin (DOX) and Curcumin were used as positive controls.

[9] = Modified MTT cytotoxicity assay, normal heptical cell line LO2; assay type: cell-based, human; settings: human, LO2 cells (normal hepatic cell line), 24 h incubation
In short: (§3)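 HepG2 grown in DMEM, SMMC-7721 and LO2 in RPMI 1640, each with 10% FBS; ~8 × 10^3 cells/well. Compounds at 0.3125-10 μg/mL for 24 h at 37 °C, then MTT for 4 h. IC50 as mean of three replicates.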

[10] = test system: SMMC-7721; experiment: Modified MTT cytotoxicity assay, SMMC-7721; assay type: cell-based, Human; settings: for SI (selectivity index) SMMC-7721: quotient of IC50 for normal (LO2) and malignant (SMMC-7721) cells
In short: as §3

[11] = test system: C-Caspase-3; experiment: Western blot, C-Caspase-3 expression in HepG2 cells; assay type: cell-based, Human; settings: HepG2, 1.0, 2.0, 4.0 μM, 24 h
Text: as §2

[12] = test system: RAW264.7 cell; experiment: MTT toxicity pre-experiment on RAW264.7 macrophagocyte; assay type: cell-based, mouse
In short: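 Cytotoxicity toward RAW264.7 macrophages determined by MTT assay with compounds at 5.0 μM, expressed as cell survival rate.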

SMILES: O=C1C(=Cc2cccc(C(F)(F)F)c2)CN(S(=O)(=O)c2ccc(C(F)(F)F)cc2)CC1=Cc1cccc(C(F)(F)F)c1 [BAP 16]
- inhibition at 5 µM [1]: ~79.2%
- IC50 ([2]; Homo sapiens, A549, read-out: Cytotoxicity IC50 A549, MTT, non-small cell lung cancer cell line): 430 ± 80 nM
- SI (selectivity index) A549 ([2]; quotient of IC50 for normal (HHL-5) and malignant (A549) cells): 14.4
- inhibition at 5 µM ([3]; RAW264.7, BAPs (5 μM) + LPS (1 μg/mL), RAW264.7, ELISA, read-out: Inhibition rate TNF-α): ~83.2%
- inhibition at 5 µM ([3]; RAW264.7, average of TNF-α and IL-6, 5 μM + LPS, RAW264.7, read-out: Inhibition rates against IL-6 and TNF-α cytokine release, average): 81.2%
- Expression of pro-apoptotic protein Bax [4]: significantly increased
- Expression level of p-p38 [5]: significantly decreased
- Expression level of p-IκBα [6]: significantly decreased in a dose-dependent manner
- Expression level of p-JNK [7]: significantly decreased
- IC50 ([8]; Homo sapiens, A2780, read-out: Cytotoxicity IC50 A2780, MTT, ovarian cancer cell line): 270 ± 20 nM
- SI (selectivity index) A2780 ([8]; quotient of IC50 for normal (HHL-5) and malignant (A2780) cells): 23.0
- IC50 at 24 h [9]: ~17800 nM
- IC50 ([10]; Homo sapiens, SMMC-7721, 24 h, MTT, 24 h incubation, three replicates): ~1200 nM
- SI (selectivity index) SMMC-7721 [10]: ca. 14.8
- SI (selectivity index) SMMC-7721 ([10]; listed as 16): 14.8
- Expression of pro-apoptotic protein C-Caspase-3 [11]: significantly increased
- Survival rate RAW264.7 cell ([12]; BAPs 5 μM): 88.6 ± 3.7%
- viability at 5 µM ([12]; Mus musculus, RAW264.7, BAPs 5 μM, read-out: Survival rate RAW264.7 cell): 88.6%
